Assay results reported in patent publication US11427548B2 (Arvinas Operations, Inc., priority 2015, dated 2022).

Biological target: T1, Androgen Receptor (Homo sapiens, UniProt P10275+P40337, T878A)
T1 construct: Compounds have been evaluated in this assay in LNCaP and/or VCaP cells utilizing similar protocols; endogenous in cells; host or cells: LNCaP cells
Experiment: Androgen Receptor ELISA assay (PathScan AR ELISA) in LNCaP cells: AR degradation, Dmax and DC50
Assay type: cell-based
Conditions: for DC50: concentration that caused 50% Androgen Receptor degradation; for Dmax: highest percentage of Androgen Receptor degradation

T1 sequence (P10275 whole entry T878A): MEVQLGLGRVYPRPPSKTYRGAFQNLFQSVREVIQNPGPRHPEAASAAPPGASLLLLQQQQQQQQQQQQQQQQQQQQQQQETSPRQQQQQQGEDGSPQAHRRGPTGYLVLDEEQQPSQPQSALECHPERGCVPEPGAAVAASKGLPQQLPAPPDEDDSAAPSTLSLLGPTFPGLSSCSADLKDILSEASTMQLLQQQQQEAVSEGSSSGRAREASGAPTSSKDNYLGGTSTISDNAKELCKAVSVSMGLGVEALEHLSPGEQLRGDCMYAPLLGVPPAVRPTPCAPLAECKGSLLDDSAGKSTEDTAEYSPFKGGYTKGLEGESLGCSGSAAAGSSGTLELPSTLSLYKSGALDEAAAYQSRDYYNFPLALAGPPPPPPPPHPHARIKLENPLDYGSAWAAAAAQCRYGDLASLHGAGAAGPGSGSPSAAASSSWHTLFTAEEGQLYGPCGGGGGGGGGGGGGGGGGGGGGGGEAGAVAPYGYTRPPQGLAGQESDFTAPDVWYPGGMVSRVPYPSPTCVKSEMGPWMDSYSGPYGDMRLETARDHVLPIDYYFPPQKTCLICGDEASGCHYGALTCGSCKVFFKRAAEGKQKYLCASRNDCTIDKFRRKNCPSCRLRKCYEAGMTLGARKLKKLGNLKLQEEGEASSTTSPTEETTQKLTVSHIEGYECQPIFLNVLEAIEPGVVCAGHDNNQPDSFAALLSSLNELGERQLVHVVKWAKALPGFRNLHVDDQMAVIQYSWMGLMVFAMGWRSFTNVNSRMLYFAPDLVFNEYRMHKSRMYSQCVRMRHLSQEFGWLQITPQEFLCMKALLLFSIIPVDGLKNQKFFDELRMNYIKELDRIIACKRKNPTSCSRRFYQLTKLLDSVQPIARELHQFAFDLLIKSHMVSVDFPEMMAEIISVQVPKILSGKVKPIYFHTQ
T1 sequence (P40337 whole entry): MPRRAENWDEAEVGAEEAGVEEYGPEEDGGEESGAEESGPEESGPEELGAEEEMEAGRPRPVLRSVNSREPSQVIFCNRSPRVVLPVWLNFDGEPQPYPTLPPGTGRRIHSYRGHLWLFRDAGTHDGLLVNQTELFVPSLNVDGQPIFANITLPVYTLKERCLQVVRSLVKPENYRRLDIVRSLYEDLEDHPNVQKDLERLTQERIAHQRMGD
T1 sequence (Q15369 whole entry partner): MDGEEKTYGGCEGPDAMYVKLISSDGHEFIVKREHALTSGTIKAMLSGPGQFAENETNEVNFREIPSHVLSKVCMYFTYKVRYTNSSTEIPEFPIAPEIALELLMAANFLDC
T1 sequence (Q15370 whole entry partner): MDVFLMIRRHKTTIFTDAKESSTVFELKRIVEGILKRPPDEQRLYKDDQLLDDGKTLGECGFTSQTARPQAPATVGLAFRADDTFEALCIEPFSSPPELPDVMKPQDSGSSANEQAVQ

Structure (SMILES) | DC50 [nM] | Dmax [%]
Cc1ncsc1-c1ccc(CNC(=O)[C@@H]2C[C@@H](O)CN2C(=O)[C@@H](NC(=O)OCCOCCCOCCOc2ccc(N3C(=S)N(c4ccc(C#N)c(C(F)(F)F)c4)C(=O)C3(C)C)cc2)C(C)(C)C)cc1 [Example 239] | < 50 | 51 to 70
Cc1ncsc1-c1ccc(CNC(=O)[C@@H]2C[C@@H](O)CN2C(=O)[C@@H](NC(=O)COCCOCCCOCCOc2ccc(N3C(=S)N(c4ccc(C#N)c(C(F)(F)F)c4)C(=O)C3(C)C)cc2)C(C)(C)C)cc1 [Example 240] | < 50 | 51 to 70
Cc1ncsc1-c1ccc(CNC(=O)[C@@H]2C[C@@H](O)CN2C(=O)[C@H](C(C)C)N2Cc3ccccc3C2=O)c(OCCCOCCOc2ccc(N3C(=S)N(c4ccc(C#N)c(C(F)(F)F)c4)C(=O)C3(C)C)cc2)c1 [Example 241] | < 50 | 26 to 50
Cc1ncsc1-c1ccc(CNC(=O)[C@@H]2C[C@@H](O)CN2C(=O)[C@@H](NC(=O)COCCOCCCOc2ccc(N3C(=S)N(c4ccc(C#N)c(C(F)(F)F)c4)C(=O)C3(C)C)cc2)C(C)(C)C)cc1 [Example 243] | 51 to 500 | 51 to 70
Cc1ncsc1-c1ccc(CNC(=O)[C@@H]2C[C@@H](O)CN2C(=O)[C@@H](NC(=O)CCOCCCOc2ccc(N3C(=S)N(c4ccc(C#N)c(C(F)(F)F)c4)C(=O)C3(C)C)cc2)C(C)(C)C)cc1 [Example 244] | 51 to 500 | < 25
Cc1ncsc1-c1ccc(CNC(=O)[C@@H]2C[C@@H](O)CN2C(=O)[C@@H](NC(=O)CCCOCCOCCNC(=O)c2ccc(N3C(=S)N(c4ccc(C#N)c(C(F)(F)F)c4)C(=O)C3(C)C)cc2F)C(C)(C)C)cc1 [Example 245] | > 501 | 26 to 50
Cc1ncsc1-c1ccc(CNC(=O)[C@@H]2C[C@@H](O)CN2C(=O)[C@@H](NC(=O)CCCCOCCCCCOc2ccc(N3C(=S)N(c4ccc(C#N)c(C(F)(F)F)c4)C(=O)C3(C)C)cc2)C(C)(C)C)cc1 [Example 246] | 51 to 500 | > 71
Cc1ncsc1-c1ccc(CNC(=O)[C@@H]2C[C@@H](O)CN2C(=O)[C@H](C(C)C)N2Cc3cc(CCCOCCOc4ccc(N5C(=S)N(c6ccc(C#N)c(C(F)(F)F)c6)C(=O)C5(C)C)cc4)ccc3C2=O)cc1 [Example 248] | 51 to 500 | 26 to 50
Cc1ncsc1-c1ccc(CNC(=O)[C@@H]2C[C@@H](O)CN2C(=O)[C@@H](NC(=O)CCCCCOCCCCCOc2ccc(N3C(=S)N(c4ccc(C#N)c(C(F)(F)F)c4)C(=O)C3(C)C)cc2)C(C)(C)C)cc1 [Example 249] | 51 to 500 | > 71
Cc1ncsc1-c1ccc(CNC(=O)[C@@H]2C[C@@H](O)CN2C(=O)[C@H](C(C)C)N2Cc3ccccc3C2=O)c(OCCCOCCCOc2ccc(N3C(=S)N(c4ccc(C#N)c(C(F)(F)F)c4)C(=O)C3(C)C)cc2)c1 [Example 250] | 51 to 500 | > 71
Cc1ncsc1-c1ccc(CNC(=O)[C@@H]2C[C@@H](O)CN2C(=O)[C@H](C(C)C)N2Cc3cc(CCCCCOc4ccc(N5C(=S)N(c6ccc(C#N)c(C(F)(F)F)c6)C(=O)C5(C)C)cc4)ccc3C2=O)cc1 [Example 251] | 51 to 500 | 51 to 70
Cc1ncsc1-c1ccc(CNC(=O)[C@@H]2C[C@@H](O)CN2C(=O)[C@H](C(C)C)N2Cc3cc(CCCCOCCOc4ccc(N5C(=S)N(c6ccc(C#N)c(C(F)(F)F)c6)C(=O)C5(C)C)cc4)ccc3C2=O)cc1 [Example 252] | 51 to 500 | 51 to 70
Cc1ncsc1-c1ccc(CNC(=O)[C@@H]2C[C@@H](O)CN2C(=O)[C@@H](NC(=O)COCCCOCCOCCOc2ccc(N3C(=S)N(c4ccc(C#N)c(C(F)(F)F)c4)C(=O)C3(C)C)cc2)C(C)(C)C)cc1 [Example 253] | 51 to 500 | 51 to 70
Cc1ncsc1-c1ccc(CNC(=O)[C@@H]2C[C@@H](O)CN2C(=O)[C@H](C(C)C)N2Cc3ccccc3C2=O)c(OCCCOc2ccc(N3C(=S)N(c4ccc(C#N)c(C(F)(F)F)c4)C(=O)C3(C)C)cc2)c1 [Example 254] | 51 to 500 | 51 to 70
Cc1ncsc1-c1ccc(CNC(=O)[C@@H]2C[C@@H](O)CN2C(=O)[C@@H](NC(=O)COCCCCOCCCCCOc2ccc(N3C(=S)N(c4ccc(C#N)c(C(F)(F)F)c4)C(=O)C3(C)C)cc2)C(C)(C)C)cc1 [Example 255] | 51 to 500 | > 71
Cc1ncsc1-c1ccc(CNC(=O)[C@@H]2C[C@@H](O)CN2C(=O)[C@H](C(C)C)N2Cc3ccccc3C2=O)c(OCCCCOc2ccc(N3C(=S)N(c4ccc(C#N)c(C(F)(F)F)c4)C(=O)C3(C)C)cc2)c1 [Example 256] | 51 to 500 | 51 to 70
Cc1ncsc1-c1ccc(CNC(=O)[C@@H]2C[C@@H](O)CN2C(=O)[C@@H](NC(=O)c2ccc(OCCCCOc3ccc(N4C(=S)N(c5ccc(C#N)c(C(F)(F)F)c5)C(=O)C4(C)C)cc3)cc2)C(C)(C)C)cc1 [Example 257] | 51 to 500 | 26 to 50
Cc1ncsc1-c1ccc(CNC(=O)[C@@H]2C[C@@H](O)CN2C(=O)[C@@H](NC(=O)c2ccc(OCCCCCOc3ccc(N4C(=S)N(c5ccc(C#N)c(C(F)(F)F)c5)C(=O)C4(C)C)cc3)cc2)C(C)(C)C)cc1 [Example 258] | 51 to 500 | 26 to 50

Structure (SMILES) | DC50 [nM] | Dmax [%]
Cc1ncsc1-c1ccc(CNC(=O)[C@@H]2C[C@@H](O)CN2C(=O)[C@@H](NC(=O)CCCCOc2ccc(CCCOc3ccc(N4C(=S)N(c5ccc(C#N)c(C(F)(F)F)c5)C(=O)C4(C)C)cc3)cc2)C(C)(C)C)cc1 [Example 259] | 51 to 500 | > 71
Cc1ncsc1-c1ccc(CNC(=O)[C@@H]2C[C@@H](O)CN2C(=O)[C@H](C(C)C)N2Cc3ccccc3C2=O)c(OCCOc2ccc(N3C(=S)N(c4ccc(C#N)c(C(F)(F)F)c4)C(=O)C3(C)C)cc2)c1 [Example 261] | 51 to 500 | < 25
Cc1ncsc1-c1ccc(CNC(=O)[C@@H]2C[C@@H](O)CN2C(=O)[C@@H](NC(=O)COCCOCCCOCCCOc2ccc(N3C(=S)N(c4ccc(C#N)c(C(F)(F)F)c4)C(=O)C3(C)C)cc2)C(C)(C)C)cc1 [Example 262] | 51 to 500 | 26 to 50
Cc1ncsc1-c1ccc(CNC(=O)[C@@H]2C[C@@H](O)CN2C(=O)[C@@H](NC(=O)c2ccc(OCCOCCCCOc3ccc(N4C(=S)N(c5ccc(C#N)c(C(F)(F)F)c5)C(=O)C4(C)C)cc3)cc2)C(C)(C)C)cc1 [Example 263] | 51 to 500 | 26 to 50
Cc1ncsc1-c1ccc(CNC(=O)[C@@H]2C[C@@H](O)CN2C(=O)[C@@H](NC(=O)c2ccc(OCCOCCOc3ccc(N4C(=S)N(c5ccc(C#N)c(C(F)(F)F)c5)C(=O)C4(C)C)cc3)cc2)C(C)(C)C)cc1 [Example 264] | 51 to 500 | < 25
Cc1ncsc1-c1ccc(CNC(=O)[C@@H]2C[C@@H](O)CN2C(=O)[C@@H](NC(=O)c2ccc(OCCCOc3ccc(N4C(=S)N(c5ccc(C#N)c(C(F)(F)F)c5)C(=O)C4(C)C)cc3)cc2)C(C)(C)C)cc1 [Example 265] | 51 to 500 | < 25
CC(=O)N[C@H](C(=O)N1C[C@H](O)C[C@H]1C(=O)NCc1ccc(-c2scnc2C)cc1OCCOCCOCCOc1ccc(N2C(=S)N(c3ccc(C#N)c(C(F)(F)F)c3)C(=O)C2(C)C)cc1)C(C)(C)C [Example 266] | 51 to 500 | 51 to 70
CCC(=O)N[C@H](C(=O)N1C[C@H](O)C[C@H]1C(=O)NCc1ccc(-c2scnc2C)cc1OCCOCCOCCOc1ccc(N2C(=S)N(c3ccc(C#N)c(C(F)(F)F)c3)C(=O)C2(C)C)cc1)C(C)(C)C [Example 267] | 51 to 500 | 51 to 70
CCC(=O)N[C@H](C(=O)N1C[C@H](O)C[C@H]1C(=O)NCc1ccc(-c2scnc2C)cc1OCCOCCOCCOc1ccc(N2C(=O)N(c3ccc(C#N)c(C(F)(F)F)c3)C(=O)C2(C)C)cc1)C(C)(C)C [Example 268] | > 501 | 51 to 70
Cc1ncsc1-c1ccc(CNC(=O)[C@@H]2C[C@@H](O)CN2C(=O)[C@@H](NC(=O)C(C)C)C(C)(C)C)c(OCCOCCOCCOc2ccc(N3C(=S)N(c4ccc(C#N)c(C(F)(F)F)c4)C(=O)C3(C)C)cc2)c1 [Example 269] | > 501 | 51 to 70
Cc1ncsc1-c1ccc(CNC(=O)[C@@H]2C[C@@H](O)CN2C(=O)[C@@H](NC(=O)C(C)(C)C)C(C)(C)C)c(OCCOCCOCCOc2ccc(N3C(=S)N(c4ccc(C#N)c(C(F)(F)F)c4)C(=O)C3(C)C)cc2)c1 [Example 270] | 51 to 500 | 51 to 70
CC(=O)NCC(=O)N1C[C@H](O)C[C@H]1C(=O)NCc1ccc(-c2scnc2C)cc1OCCOCCOCCOc1ccc(N2C(=S)N(c3ccc(C#N)c(C(F)(F)F)c3)C(=O)C2(C)C)cc1 [Example 271] | > 501 | 26 to 50
CC(=O)N[C@@H](C)C(=O)N1C[C@H](O)C[C@H]1C(=O)NCc1ccc(-c2scnc2C)cc1OCCOCCOCCOc1ccc(N2C(=S)N(c3ccc(C#N)c(C(F)(F)F)c3)C(=O)C2(C)C)cc1 [Example 272] | > 501 | < 25
Cc1ncsc1-c1ccc(CNC(=O)[C@@H]2C[C@@H](O)CN2C(=O)[C@H](C(C)C)N2Cc3cc(CCCCOCCCOc4ccc(N5C(=S)N(c6ccc(C#N)c(C(F)(F)F)c6)C(=O)C5(C)C)cc4)ccc3C2=O)cc1 [Example 273] | > 501 | 26 to 50
Cc1ncsc1-c1ccc(CNC(=O)[C@@H]2C[C@@H](O)CN2C(=O)[C@@H](NC(=O)c2ccc(OCCOCCCOc3ccc(N4C(=S)N(c5ccc(C#N)c(C(F)(F)F)c5)C(=O)C4(C)C)cc3)cc2)C(C)(C)C)cc1 [Example 274] | 51 to 500 | 26 to 50
Cc1ncsc1-c1ccc(CNC(=O)[C@@H]2C[C@@H](O)CN2C(=O)[C@@H](NC(=O)c2ccccc2OCCCOc2ccc(N3C(=S)N(c4ccc(C#N)c(C(F)(F)F)c4)C(=O)C3(C)C)cc2)C(C)(C)C)cc1 [Example 275] | > 501 | < 25
Cc1ncsc1-c1ccc(CNC(=O)[C@@H]2C[C@@H](O)CN2C(=O)[C@@H](NC(=O)c2ccccc2OCCCCOc2ccc(N3C(=S)N(c4ccc(C#N)c(C(F)(F)F)c4)C(=O)C3(C)C)cc2)C(C)(C)C)cc1 [Example 276] | > 501 | < 25
Cc1ncsc1-c1ccc(CNC(=O)[C@@H]2C[C@@H](O)CN2C(=O)[C@@H](NC(=O)c2cccc(OCCCOc3ccc(N4C(=S)N(c5ccc(C#N)c(C(F)(F)F)c5)C(=O)C4(C)C)cc3)c2)C(C)(C)C)cc1 [Example 277] | 51 to 500 | < 25
